Measurements: PMC10041537, “Molecular origins of mutational spectra produced by the environmental carcinogen N-nitrosodimethylamine and SN1 chemotherapeutic agents” (NAR Cancer, 2023)

Experiments:
[1] = system: C57BL/6J gptΔ mouse embryonic fibroblasts (MEFs); assay: Duplex sequencing, high-resolution mutational spectra of MEFs treated with alkylating agents; assay type: cell-based; details: for predominant mutation type of mutational spectrum: doses generating no more than 50% growth inhibition; for cosine similarity of mutational spectra: with each other, with NDMA spectra from WT liver and lung, Mgmt-deficient liver, and COSMIC SBS11
Method: C57BL/6J gptΔ mouse embryonic fibroblasts (MEFs) were established and maintained in high glucose, GlutaMAX DMEM (Gibco) supplemented with 10% FBS (VWR Life Sciences), sodium pyruvate (1 mM, Gibco), penicillin (100 IU) and streptomycin (100 μg/ml) (Corning) as previously described ([40]). […] For growth-inhibition assays, 2.5 × 10^4 cells were seeded in 6-well plates and incubated overnight. Cells were treated with SN1 alkylating agents as follows. TMZ (Sigma-Aldrich): 50, 100 and 200 μM (stock solutions in DMSO (Sigma-Aldrich)) in FBS-free complete media for 24 h. STZ (Sigma-Aldrich): 500, 1000 and 2000 μM (stock solutions in 0.1 M citrate buffer, pH 4.5) in HBSS, pH 7.4 for 6 h. MNU (Sigma-Aldrich): 125, 250 and 500 μM (stock solutions in 0.1 M citrate buffer, pH 4.5) in HBSS, pH 7.4 for 1 h. After the treatments, cells were washed in PBS (Gibco) and cultured in complete media for another 48 h. Cell growth was analyzed by determining percentages of cell numbers from treatment and untreated control groups by Coulter counter. For gpt assays, 4 × 10^5 cells were seeded into 15 cm tissue culture dishes (4 dishes per group) and treated with TMZ, STZ and MNU, as described above, at 60–70% confluence. Viable cells were harvested and washed twice in PBS.
The gptΔ assay as described above was also performed on MEFs derived from the gptΔ mouse (see above) that were treated with the toxicants studied here. For the cell culture studies, genomic DNA from 2 × 10^6 cells per group was prepared using the MegaLong DNA Isolation Kit (G-Biosciences) according to the manufacturer's instructions.
To determine the identity of mutations and the sequence contexts in which they occur, we utilized a form of error-corrected sequencing called duplex sequencing (DS). Previously, we described how DS can be used directly on genomic samples derived from the gptΔ mouse to yield high-resolution mutational spectra in an unbiased (unselected) manner ([49]). Unlike the traditional gptΔ assay, DS evaluates the mutations throughout the entire 6382 bp transgenic region (which contains the gpt gene), without the need for a phenotypic selection. In the present work, 6.4 kb gpt-containing plasmids from gptΔ mouse livers and cell culture were isolated using a Miniprep Kit (Qiagen) following instructions of the manufacturer. Approximately 6 μg of plasmid DNA was diluted in 1× TE buffer-low EDTA, pH 8 (Thermo Scientific), transferred to a microTUBE AFA Fiber Pre-Slit Snap-Cap (Covaris) and sonicated using a Covaris E220 Focused-ultrasonicator. The following program was used to obtain 300–350 bp fragments: peak incident power = 140 W, duty factor = 10%, cycles per burst = 200, treatment time = 80 s, temperature = 4–7°C. DS libraries for gptΔ C57BL/6J mice and MEFs were prepared using the NEBNext Ultra II DNA Library Prep (E7103, NEB) or as described in Chawanthayatham et al. ([49]) and sequenced on a NextSeq500 or NovaSeq 6000 Illumina platform by using a 150 bp paired-end protocol (MIT BioMicro Center). DS libraries for the gptΔ mouse lungs and Mgmt^−/− mice were prepared using an input of 1 μg or 500 ng genomic DNA, respectively, using a TwinStrand Biosciences, Inc. Mouse Mutagenesis Kit according to the manufacturer's protocol. This kit uses probes that hybridize to 20 genomic regions, each 2.4 kb long. The genomic coordinates are provided in Supplementary Table S1. These probes were purposely selected to map in intronic and intergenic regions, to avoid selection bias. The libraries were sequenced on an Illumina NovaSeq 6000 DNA sequencer on an S4 flow cell using a 150 bp paired-end protocol (MIT BioMicro Center).
For each sample, the two fastq files generated by the Illumina sequencer were converted into an unaligned bam file, using Picard Tools. The resulting bam file was processed using UnifiedConsensusMaker.py (version 3.0) as available from the Kennedy Lab at University of Washington (https://github.com/Kennedy-Lab-UW/Duplex-Sequencing). […]

[2] = system: human induced pluripotent stem cells; parameters: method as in PMID 30982602; details: cited from earlier work

| Structure (SMILES) | sequence context of mutations [1] | predominant mutation type of mutational spectrum [1] | cosine similarity of mutational spectra [1] | dominant mutation type of mutational spectrum [2] |
| --- | --- | --- | --- | --- |
| CN(N=O)C(N)=O [MNU, N-methyl-N-nitrosourea] | 5’-PuGN-3’ | GC→AT mutations | > 0.9 | AT→GC mutations |
| CN(N=O)C(=O)NC1C(O)OC(CO)C(O)C1O (centres unmarked) [STZ, streptozotocin] | 5’-PuGN-3’ | GC→AT mutations | > 0.9 | – |
| Cn1nnc2c(C(N)=O)ncn2c1=O [TMZ, temozolomide] | 5’-PuGN-3’ | GC→AT mutations | > 0.9 | AT→GC mutations |
